Reference: US20130005825A1, “Inhibition of the Survival of Lymphoma by Cyclohexenone Compounds from Antrodia Camphorata” (Golden Biotechnology Corporation, priority 2009, published 2013)

System: lymphoma cell line U937
Test: In vitro survival assay (MTT) for anti-lymphoma effects
Format: cell-based
Details: Homo sapiens, U-937, U937 cells, 48 hours treatment, read-out: IC50 (half inhibition concentration), survival of lymphoma cells
Description: Inhibiting effects of lymphoma cells by cyclohexenone compounds of Antrodia camphorata from example 1 were assessed according to the anticancer-drug screening model of National Cancer Institute (NCI). The compound 4-hydroxy-2,3-dimethoxy-6-methyl-5-(3,7,11-trimethyl-dodeca-2,6,10-trienyl)-cyclohex-2-enone from example 1 was added into the culture media of lymphoma cell line U937 to determine the survival rates. Survival of cell was analyzed using MTT assay. U937 cell line was a human histiocytic lymphoma cell line.
MTT assay is commonly used to analyze cell proliferation, survival rate of viable cells and cytotoxicity. MTT (3[4,5-dimethylthiazol-2-yl]-2,5-diphenyltetrazolium bromide) is a yellow dye which can be converted to water-insoluble purple formazan on the reductive cleavage of its tetrazolium ring by the succinate tetrazolium reductase in mitochondria of cells. The amount of formazan produced is used to detect the number of viable cells and calculate the survival rates.
The U937 cells were cultivated in RPMI 1640 medium supplemented with 10% fetal bovine serum, 10 U/ml of Penicillin and 100 μg/ml of Streptomycin at 37° C., 5% CO2 for 24 hours. […] The absorbances were measured at 570 nm with an ELISA Reader to determine the survival rates.

Question: For `COC1=C(OC)C(O)C(C/C=C(\C)CC/C=C(\C)CCC=C(C)C)C(C)C1=O` (stereo not shown) [formula 2, 4-hydroxy-2,3-dimethoxy-6-methyl-5-(3,7,11-trimethyl-dodeca-2,6,10-trienyl)-cyclohex-2-enone], which IC50 is on record?
Answer: 9.71 µg/mL
